Laboratory results: PubChem BioAssay (NCI)
Where “and” joins values, the source holds several entries; their conditions need not be identical. Equal entries are not always repeated.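 Protocol summary: plate cells (96-well), add compound at 5 concentrations, incubate 48 h, interpolate endpoints linearly. At the GI50, growth is halved. The concentration for full growth arrest is given as TGI.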

What was measured:
Assay in all cases: DTP human tumour cell line panel, 48 h
786-0 renal = test system: 786-0 renal
HOP-62 NSCLC = test system: HOP-62 NSCLC
K-562 leukemia = test system: K-562 leukemia
M14 melanoma = test system: M14 melanoma
M19-MEL melanoma = test system: M19-MEL melanoma
NCI-H460 lung = test system: NCI-H460 lung
SN12C renal = test system: SN12C renal
SNB-19 CNS = test system: SNB-19 CNS
DLD-1 colon = test system: DLD-1 colon
SR leukemia = test system: SR leukemia

Compound	TGI (786-0 renal)	TGI (HOP-62 NSCLC)	TGI (K-562 leukemia)	TGI (M14 melanoma)	TGI (M19-MEL melanoma)	TGI (NCI-H460 lung)	TGI (SN12C renal)	TGI (SNB-19 CNS)	TGI (DLD-1 colon)	TGI (SR leukemia)	GI50 (786-0 renal)	GI50 (HOP-62 NSCLC)	GI50 (K-562 leukemia)	GI50 (M19-MEL melanoma)	GI50 (NCI-H460 lung)	GI50 (SN12C renal)	GI50 (SNB-19 CNS)	GI50 (SR leukemia)
O=C(NCCCN1CCN(CCCNC(=O)c2cccc3ccccc23)CC1)c1cccc2ccccc12	> 100 µM	> 100 µM	> 100 µM	> 100 µM	> 100 µM	> 100 µM	> 100 µM	> 100 µM	–	–	–	–	–	–	–	–	–	–
COCN1COCN(C)C1=O	> 100 µM	> 100 µM	> 100 µM	> 100 µM	> 100 µM	> 100 µM	> 100 µM	> 100 µM	> 100 µM	–	–	–	–	–	–	–	–	–
CC(=O)CC[N+](C)(C)C	59.3 µM	> 100 µM	13.5 µM	52.1 µM	> 58.2 µM	> 90 µM	53.6 µM	> 36.9 µM	35.4 µM	21.5 µM	–	–	–	–	–	–	–	–
Cn1cc(-c2ccc3c4ccccc4n(C)c3c2)c2ccccc21	> 100 µM	> 100 µM	> 100 µM	> 100 µM	> 100 µM	> 100 µM	> 100 µM	> 100 µM	–	–	–	–	–	–	–	–	–	–
CC(=O)OC1(Sc2ccccc2)CC2[C@H]3COC(C)(C)O[C@H]3CC[C@@]2(C)CC1=O (stereo partly drawn)	> 100 µM	–	> 100 µM	> 100 µM	> 100 µM	> 100 µM	> 100 µM	> 100 µM	> 100 µM	45.4 µM	–	–	–	–	–	–	–	–
COc1ccc2nc3cc(Cl)ccc3c(Nc3ccccc3-c3ccccc3Nc3c4ccc(Cl)cc4nc4ccc(OC)cc34)c2c1	> 59 µM	> 94.9 µM	59.3 µM	> 87.5 µM	> 93.3 µM	98.9 µM	> 84.4 µM	> 100 µM	> 47.3 µM	> 66.8 µM	–	–	–	–	–	–	–	–
O=C(n1c2ccccc2c2n[nH]c(=S)nc21)C(F)(F)F	> 100 µM	> 100 µM	> 100 µM	> 100 µM	> 100 µM	> 100 µM	> 100 µM	> 100 µM	> 100 µM	–	–	–	–	–	–	–	–	–
COc1ccc2[nH]c3c(C)c4c(c(C)c3c2c1)CN(C)C=C4	4.05 µM	3.53 µM	46.5 µM	22.7 µM	5.53 µM	11.2 µM	0.985 µM	3.66 µM	32.2 µM	46.3 µM	–	–	–	–	–	–	–	–
CCC/C=C/C=C/C(=O)OC1/C(=C/C(=O)OC)CC2CC(C(C)O)OC(=O)CC(O)CC3CC(OC(C)=O)C(C)(C)C(O)(CC4C/C(=C/C(=O)OC)CC(/C=C/C(C)(C)C1(O)O2)O4)O3 (stereo not drawn)	11 µM and > 12.5 µM	11 µM and > 12.5 µM	10.9 µM and 11 µM and > 12.5 µM	> 11 µM	> 10.9 µM and 11 µM	10.9 µM and 11 µM and > 12.5 µM	> 10.9 µM and 11 µM and > 12.5 µM	> 12.5 µM	> 10.9 µM and 11 µM	11 µM and > 12.5 µM	> 12.5 µM	10.9 µM and > 12.5 µM	8.57 µM and 3.77 µM and > 12.5 µM	> 10.9 µM and 7.88 µM	9.82 µM and 2.81 µM and > 12.5 µM	> 10.9 µM and 7.93 µM and > 12.5 µM	> 11 µM	10.8 µM
O=c1[nH]c2nc3ccccc3c(=O)n2nc1Cc1ccccc1	> 100 µM	> 100 µM	> 100 µM	> 100 µM	–	> 100 µM	> 100 µM	> 100 µM	> 100 µM	> 100 µM	–	–	–	–	–	–	–	–
CCOC(=O)c1ccc(N=Cc2ccc(N(CCC#N)S(=O)(=O)c3ccccc3)cc2C)cc1	> 100 µM	> 100 µM	> 100 µM	> 100 µM	> 100 µM	–	> 100 µM	> 100 µM	> 100 µM	–	–	–	–	–	–	–	–	–
